Values quoted from earlier work as cited in US20170049836A1, “COMPOSITIONS COMPRISING BOTANICALS, INCLUDING THE USE AND METHOD OF USE THEREOF” (FEM MED FORMULAS LIMITED PARTNERSHIP, priority 2010, published 2017).
Read-outs that look alike come from different tables or passages of the source.

Tests used:
[1] = test system: estrogen receptor-positive breast cancer cells
[2] = test system: ratio of 2-OHE to 16-αOHE

Compound	effect on cell growth / proliferation [1]	women with sustained increase in ratio of 2-OHE to 16-αOHE ([2]; 17 of 20 women, 200 or 400 mg/day) [%]	average increase in 2-OHE:16-αOHE ratio ([2]; 20 women, 400 mg daily) [%]	increase in 2-OHE:16-αOHE ratio, overall ([2]; 200-400 mg, regular consumption, vast majority of women)	average increase in ratio of 2-OHE to 16-αOHE ([2]; 200 or 400 mg/day, over the course of the trial) [%]	change in 2-OHE:16-αOHE ratio ([2]; all 20 women, 300 or 400 mg, 4 weeks)	average increase in 2-OHE:16-αOHE ratio ([2]; non-obese women, same trial) [%]	average increase in 2-OHE:16-αOHE ratio ([2]; obese women (four out of five), two-month period) [%]
C[C@]12CC[C@@H]3c4ccc(O)cc4CC[C@H]3[C@@H]1C[C@@H](O)C2=O [16-αOHE, 16-αhydrxyestrone]	stimulates proliferation							
C[C@]12CC[C@@H]3c4cc(O)c(O)cc4CC[C@H]3[C@@H]1CCC2=O [2-OHE, 2-hydroxyestrone]	no effect on cell growth							
OCc1c[nH]c2ccccc12 [I3C, Indole-3-carbinol]		85	65	approx. 60%	44	significantly increased	38	93
